Holding throughout (format): cell-based
The subject of experiment [1] is PL45 (pancreatic cancer cells). In words: Anti-proliferation activity against PL45 cells. As to the method:
(§1) Upon completion of synthesis of library of compounds in Examples 23 and 24, the compounds were evaluated for anti-proliferative activity against SkBr3 (Her2 overexpressing breast cancer cells), MCF-7 (estrogen receptor positive breast cancer cells), HCT-116 (colon cancer cells characterized by wild-type p53), PL45 (pancreatic cancer cells), LNCaP (androgen sensitive prostate cancer cells) and PC-3 (androgen independent prostate cancer cells) cell lines. […] The monosubstituted benzamide variants improved activity.

Experiment [2] concerns LNCaP (androgen sensitive prostate cancer cells). Nature of the experiment: Anti-proliferation activity against LNCaP cells. Conditions: Homo sapiens, LNCaP, n = 3, read-out: IC50 LNCaP. As to the method: as §1
Cells were maintained in a 1:1 mixture of Advanced DMEM/F12 (Gibco) supplemented with non-essential amino acids, L-glutamine (2 mM), streptomycin (500 ng/mL), penicillin (100 units/mL), and 10% FBS. Cells were grown to confluence in a humidified atmosphere (37° C., 5% CO2), seeded (2000/well, 100 μl) in 96-well plates, and allowed to attach overnight. Compound or GDA at varying concentrations in DMSO (1% DMSO final concentration) was added, and cells were returned to the incubator for 72 hours. At 72 hours, the number of viable cells was determined using an MTS/PMS cell proliferation kit (Promega) per the manufacturer's instructions. Cells incubated in 1% DMSO were used at 100% proliferation, and values were adjusted accordingly. IC50 values were calculated from separate experiments performed in triplicate using GraphPad Prism.

Experiment [3] deals with HCT-116 (colon cancer cells characterized by wild-type p53). Nature of the experiment: Anti-proliferation activity against HCT-116 cells. The following applies: Homo sapiens. As to the method: as §1
Experiment [4] concerns SkBr3 (Her2 overexpressing breast cancer cells). Nature of the experiment: Anti-proliferation activity against SkBr3 cells (MTS/PMS). Conditions: Homo sapiens, SK-BR-3, n = 3, read-out: IC50 SkBr3. In a few lines:
(§2)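 Cells seeded at 2000/well, attached overnight, then exposed to compound at varying concentrations (1% DMSO final) for 72 hours at 37° C. Viable cells read by MTS/PMS, normalised to 1% DMSO as 100% proliferation. IC50 from separate triplicate experiments.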

Experiment [5] has as its system PC-3 (androgen independent prostate cancer cells). In words: Anti-proliferation activity against PC-3 cells. The following applies: Homo sapiens, PC-3, n = 3, read-out: IC50 PC-3. How it is done:
as §1
Cells were maintained in a 1:1 mixture of Advanced DMEM/F12 (Gibco) supplemented with non-essential amino acids, L-glutamine (2 mM), streptomycin (500 ng/mL), penicillin (100 units/mL), and 10% FBS. Cells were grown to confluence in a humidified atmosphere (37° C., 5% CO2), seeded (2000/well, 100 μl) in 96-well plates, and allowed to attach overnight. […] […] Cells incubated in 1% DMSO were used at 100% proliferation, and values were adjusted accordingly. IC50 values were calculated from separate experiments performed in triplicate using GraphPad Prism.

Experiment [6] relates to MCF-7 (estrogen receptor positive breast cancer cells). In words: Anti-proliferation activity against MCF-7 cells (MTS/PMS). The following applies: Homo sapiens, MCF7, n = 3, read-out: IC50 MCF-7. In a few lines:
as §2

Where [7] appears, read: Table 5, heterocyclic analogues, n = 3.
The mark [8] stands for this setting: Table 5, heterocyclic analogues.

Like-named read-outs stand apart in the source and are kept apart here.

Take `CO[C@@H]1[C@@H](O)[C@@H](O)[C@H](Oc2ccc3cc(NC(=O)c4ccccc4)c(=O)oc3c2C)OC1(C)C` [compound 8, N-(7-((2R,3R,4S,5R)-3,4-Dihydroxy-5-methoxy-6,6-dimethyltetrahydro-2H-pyran-2-yloxy)-8-methyl-2-oxo-2H-chromen-3-yl)benzamide]: the IC50 came to 3.4 ± 0.6 µM in experiment [1] (Table 2, n = 3); 72 ± 4 µM in experiment [2] (Table 2); 13 ± 2.1 µM in experiment [3] (Table 2, n = 3); 21.5 ± 1.4 µM in experiment [4] (Table 2); 67.6 ± 9.7 µM in experiment [5] (Table 2); 20.6 ± 0.4 µM in experiment [6] (Table 2).
For `COc1ccc(C(=O)Nc2cc3ccc(O[C@@H]4OC(C)(C)[C@H](OC)[C@@H](O)[C@H]4O)c(C)c3oc2=O)cc1` [compound 11, N-(7-((2R,3R,4S,5R)-3,4-Dihydroxy-5-methoxy-6,6-dimethyltetrahydro-2H-pyran-2-yloxy)-8-methyl-2-oxo-2H-chromen-3-yl)-4-methoxybenzamide], the IC50 in experiment [1] (Table 2, n = 3) was determined as 5.9 ± 2.1 µM; in experiment [2] (Table 2), 7.3 ± 0.9 µM; in experiment [3] (Table 2, n = 3) it was 15.9 ± 1.9 µM; in experiment [4] (Table 2) it was 15.6 ± 4.2 µM; in experiment [5] (Table 2), 17.1 ± 4.3 µM; in experiment [6] (Table 2), 10.3 ± 0.9 µM.
Take `CO[C@@H]1[C@@H](O)[C@@H](O)[C@H](Oc2ccc3cc(NC(=O)c4ccccc4-c4ccccc4)c(=O)oc3c2C)OC1(C)C` [compound 12, N-(7-((2R,3R,4S,5R)-3,4-Dihydroxy-5-methoxy-6,6-dimethyltetrahydro-2H-pyran-2-yloxy)-8-methyl-2-oxo-2H-chromen-3-yl)biphenyl-2-carboxamide]: the IC50 in experiment [1] (Table 2, n = 3) is 14.4 ± 2.4 µM; in experiment [2] (Table 2), 17.3 ± 5.2 µM; in experiment [3] (Table 2, n = 3), 32.7 ± 1.6 µM; in experiment [4] (Table 2) it was 39.1 ± 4.1 µM; in experiment [5] (Table 2) it was 65.3 ± 5.6 µM; in experiment [6] (Table 2), 18.9 ± 7 µM.
With `CO[C@@H]1[C@@H](O)[C@@H](O)[C@H](Oc2ccc3cc(NC(=O)c4cccc(-c5ccccc5)c4)c(=O)oc3c2C)OC1(C)C` [compound 13, N-(7-((2R,3R,4S,5R)-3,4-Dihydroxy-5-methoxy-6,6-dimethyltetrahydro-2H-pyran-2-yloxy)-8-methyl-2-oxo-2H-chromen-3-yl)biphenyl-3-carboxamide], the 50% inhibitory concentration (IC50) in experiment [1] (Table 2, n = 3) was determined as 1.6 ± 0.2 µM; in experiment [2] (Table 2) it was 1.6 ± 0.5 µM; in experiment [3] (Table 2, n = 3), 12.8 ± 2.3 µM; in experiment [4] (Table 2), 13 ± 1.4 µM; in experiment [5] (Table 2), 11.6 ± 1.4 µM; in experiment [6] (Table 2), 18 ± 3.8 µM.
For the compound `CO[C@@H]1[C@@H](O)[C@@H](O)[C@H](Oc2ccc3cc(NC(=O)c4ccc(-c5ccccc5)cc4)c(=O)oc3c2C)OC1(C)C` [compound 14, N-(7-((2R,3R,4S,5R)-3,4-Dihydroxy-5-methoxy-6,6-dimethyltetrahydro-2H-pyran-2-yloxy)-8-methyl-2-oxo-2H-chromen-3-yl)biphenyl-4-carboxamide], the IC50 in experiment [1] (Table 2, n = 3) stood at 1.6 ± 0.2 µM; in experiment [2] (Table 2), 44.9 ± 31.6 µM; in experiment [3] (Table 2, n = 3) it was 3.6 ± 2 µM; in experiment [4] (Table 2), 16.3 ± 1.6 µM; in experiment [5] (Table 2), 19.3 ± 5.1 µM; in experiment [6] (Table 2) it was 8.1 ± 6 µM.
`CO[C@@H]1[C@@H](O)[C@@H](O)[C@H](Oc2ccc3cc(NC(=O)c4ccc([N+](=O)[O-])cc4)c(=O)oc3c2C)OC1(C)C` [compound 17, N-(7-((2R,3R,4S,5R)-3,4-Dihydroxy-5-methoxy-6,6-dimethyltetrahydro-2H-pyran-2-yloxy)-8-methyl-2-oxo-2H-chromen-3-yl)-4-nitrobenzamide]: the IC50 in experiment [1] (Table 2, n = 3) is more than 100 µM; in experiment [2] (Table 2), 69.3 ± 4.1 µM; in experiment [3] (Table 2, n = 3), more than 100 µM; in experiment [4] (Table 2) it was more than 100 µM; in experiment [5] (Table 2) it was more than 100 µM; in experiment [6] (Table 2), more than 100 µM.
In the case of `CO[C@@H]1[C@@H](O)[C@@H](O)[C@H](Oc2ccc3cc(NC(=O)c4ccccc4N)c(=O)oc3c2C)OC1(C)C` [compound 18, 2-Amino-N-(7-((2R,3R,4S,5R)-3,4-dihydroxy-5-methoxy-6,6-dimethyltetrahydro-2H-pyran-2-yloxy)-8-methyl-2-oxo-2H-chromen-3-yl)benzamide], the IC50 in experiment [1] (Table 2, n = 3) was 6.2 ± 1.3 µM; in experiment [2] (Table 2), 12.7 ± 0.8 µM; in experiment [3] (Table 2, n = 3), 14.4 ± 0.8 µM; in experiment [4] (Table 2), 17.7 ± 1.4 µM; in experiment [5] (Table 2), 57.9 ± 10.1 µM; in experiment [6] (Table 2) it was 17.2 ± 3.3 µM.
With `CO[C@@H]1[C@@H](O)[C@@H](O)[C@H](Oc2ccc3cc(NC(=O)c4ccc(N)cc4)c(=O)oc3c2C)OC1(C)C` [compound 20, 4-Amino-N-(7-((2R,3R,4S,5R)-3,4-dihydroxy-5-methoxy-6,6-dimethyltetrahydro-2H-pyran-2-yloxy)-8-methyl-2-oxo-2H-chromen-3-yl)benzamide], the IC50 came to 8.4 ± 0.3 µM in experiment [1] (Table 2, n = 3); 26.4 ± 15.8 µM in experiment [2] (Table 2); 24.4 ± 5.8 µM in experiment [3] (Table 2, n = 3); 33.1 ± 1.1 µM in experiment [4] (Table 2); 65.2 ± 2.8 µM in experiment [5] (Table 2); 14 ± 0.5 µM in experiment [6] (Table 2).
As to `CO[C@@H]1[C@@H](O)[C@@H](O)[C@H](Oc2ccc3cc(NS(=O)(=O)c4ccccc4)c(=O)oc3c2C)OC1(C)C` [compound 21, N-(7-((2R,3R,4S,5R)-3,4-Dihydroxy-5-methoxy-6,6-dimethyltetrahydro-2H-pyran-2-yloxy)-8-methyl-2-oxo-2H-chromen-3-yl)benzenesulfonamide], the IC50 is more than 100 µM in experiment [1] (Table 3, n = 3); more than 100 µM in experiment [2] (Table 3); more than 100 µM in experiment [3] (Table 3, n = 3); more than 100 µM in experiment [4] (Table 3); more than 100 µM in experiment [5] (Table 3); more than 100 µM in experiment [6] (Table 3).
`CO[C@@H]1[C@@H](O)[C@@H](O)[C@H](Oc2ccc3cc(NC(=O)Cc4ccccc4)c(=O)oc3c2C)OC1(C)C` [compound 22, N-(7-((2R,3R,4S,5R)-3,4-Dihydroxy-5-methoxy-6,6-dimethyltetrahydro-2H-pyran-2-yloxy)-8-methyl-2-oxo-2H-chromen-3-yl)-2-phenylacetamide]: the IC50 in experiment [1] (Table 3, n = 3) is 8.5 ± 1.7 µM; in experiment [2] (Table 3), 10.4 ± 0.2 µM; in experiment [3] (Table 3, n = 3) it was 13.2 ± 0.6 µM; in experiment [4] (Table 3), 21.4 ± 2.2 µM; in experiment [5] (Table 3) it was 43.3 ± 13.4 µM; in experiment [6] (Table 3), 16.4 ± 0.4 µM.
With `CO[C@@H]1[C@@H](O)[C@@H](O)[C@H](Oc2ccc3cc(NC(=O)c4ccncc4)c(=O)oc3c2C)OC1(C)C` [compound 42, N-(7-((2R,3R,4S,5R)-3,4-Dihydroxy-5-methoxy-6,6-dimethyltetrahydro-2H-pyran-2-yloxy)-8-methyl-2-oxo-2H-chromen-3-yl)isonicotinamide], the IC50 in experiment [1] (setting [7]) was 19.2 ± 2.5 µM; in experiment [2] (setting [8]), 34.8 ± 16 µM; in experiment [3] (setting [7]), more than 100 µM; in experiment [4] (setting [8]), more than 100 µM; in experiment [6] (setting [8]), more than 100 µM.
As for `CO[C@@H]1[C@@H](O)[C@@H](O)[C@H](Oc2ccc3cc(NC(=O)c4cc5ccccc5o4)c(=O)oc3c2C)OC1(C)C` [compound 43, N-(7-((2R,3R,4S,5R)-3,4-Dihydroxy-5-methoxy-6,6-dimethyltetrahydro-2H-pyran-2-yloxy)-8-methyl-2-oxo-2H-chromen-3-yl)benzofuran-2-carboxamide], the IC50 in experiment [1] (setting [7]) came out at 3.8 ± 0.4 µM; in experiment [2] (setting [8]) it was 7.9 ± 1.1 µM; in experiment [3] (setting [7]), 9.6 ± 0.3 µM; in experiment [5] (setting [8]) it was 18.8 ± 4.4 µM; in experiment [6] (setting [8]) it was 28.6 ± 4.1 µM.
Regarding `CO[C@@H]1[C@@H](O)[C@@H](O)[C@H](Oc2ccc3cc(NC(=O)c4cc5ccccc5s4)c(=O)oc3c2C)OC1(C)C` [compound 44, N-(7-((2R,3R,4S,5R)-3,4-Dihydroxy-5-methoxy-6,6-dimethyltetrahydro-2H-pyran-2-yloxy)-8-methyl-2-oxo-2H-chromen-3-yl)benzo[b]thiophene-2-carboxamide], the IC50 in experiment [1] (setting [7]) is 33.2 ± 0.7 µM; in experiment [2] (setting [8]), more than 100 µM; in experiment [3] (setting [7]), 78.9 ± 3.5 µM; in experiment [5] (setting [8]), 7.4 ± 2.1 µM; in experiment [6] (setting [8]) it was 96.3 ± 3.7 µM.
